Data on one molecule can be found in patent publication US6090824A, “Therapeutic neurokinin receptor antagonist compounds” (Zeneca Limited, priority 1995, dated 2000).

In one test the target is T1, human NK1 receptor (Homo sapiens, UniProt P25103).
T1 construct: expressed in transfected cells; host or cells: Mouse Erythroleukemia (MEL) cells
Briefly: SP Receptor Binding Assay (Test A). The conditions noted are these: human NK1 receptor in MEL cells. The source says: SP Receptor Binding Assay (Test A)
The human NK1 receptor was isolated and characterized as described in: B. Hopkins, et al. "Isolation and characterization of the human lung NK1 receptor cDNA" Biochem. Biophys. Res. Comm., 1991, 180, 1110-1117; and the NK1 receptor was expressed in Mouse Erythroleukemia (MEL) cells using a procedure similar to that described in Test B below.
(§1) The selectivity of a Compound for binding at the NK1 and the NK2 receptors may be shown by determining its binding at other receptors using standard assays, for example, one using a tritiated derivative of NKB in a tissue preparation selective for NK3 receptors.

In the next test the target is T2, human NK2 receptor (Homo sapiens, UniProt P21452).
T2 construct: expressed in transfected cells; host or cells: Mouse Erythroleukemia (MEL) cells
T2 sequence (P21452 1-398): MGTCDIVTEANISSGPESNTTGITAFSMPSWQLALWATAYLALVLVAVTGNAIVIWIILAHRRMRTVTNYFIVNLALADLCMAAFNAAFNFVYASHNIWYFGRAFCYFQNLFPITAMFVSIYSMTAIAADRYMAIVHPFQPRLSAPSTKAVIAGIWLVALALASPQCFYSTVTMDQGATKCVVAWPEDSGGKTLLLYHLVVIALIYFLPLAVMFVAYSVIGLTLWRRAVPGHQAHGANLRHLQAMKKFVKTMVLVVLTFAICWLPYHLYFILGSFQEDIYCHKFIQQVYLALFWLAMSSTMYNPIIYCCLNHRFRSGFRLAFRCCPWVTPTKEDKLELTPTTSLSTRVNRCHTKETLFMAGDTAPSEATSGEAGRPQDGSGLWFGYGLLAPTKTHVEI
The test is described as follows: Neurokinin A (NKA) Receptor Binding Assay (Test B). The following applies: human NK2 receptor in MEL cells.
Excerpt: Neurokinin A (NKA) Receptor Binding Assay (Test B)
as §1

pKi: −log10 of the molar value.

T1 sequence (P25103 whole entry): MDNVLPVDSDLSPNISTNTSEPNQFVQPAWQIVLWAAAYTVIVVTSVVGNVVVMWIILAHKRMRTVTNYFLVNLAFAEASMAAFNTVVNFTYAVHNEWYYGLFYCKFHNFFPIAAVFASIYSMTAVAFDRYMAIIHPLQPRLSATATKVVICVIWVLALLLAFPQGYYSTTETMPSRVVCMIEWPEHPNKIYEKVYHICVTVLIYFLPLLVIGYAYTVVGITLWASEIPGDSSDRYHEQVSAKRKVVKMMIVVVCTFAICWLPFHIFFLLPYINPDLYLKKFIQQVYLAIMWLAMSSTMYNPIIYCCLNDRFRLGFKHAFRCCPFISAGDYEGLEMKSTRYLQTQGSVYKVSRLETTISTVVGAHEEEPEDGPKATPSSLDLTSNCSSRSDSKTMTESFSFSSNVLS

On to `CC(=O)NC1(c2ccccc2)CCN(CCC(OC(=O)NCc2ccccc2)c2ccc(Cl)c(Cl)c2)CC1` (centres unmarked) [Example 1, N-Benzyl-3-(4-acetamido4-phenylpiperidino)-1-(3,4-dichlorophenyl)propyl carbamate], for which the pKi (commonly the Ki on a negative log10 scale, so that one unit is a factor of ten) is 6.79 on human NK1 receptor and 8.17 at human NK2 receptor.
